Results reported in patent US9676756B2 (PORTOLA PHARMACEUTICALS, INC., priority 2012, dated 2017).

Experiments:
Type in all cases: biochemical
[1] = target: T1, JAK3 (Homo sapiens, UniProt P52333); assay: JAK tyrosine phosphorylation activity, Z'-LYTE FRET kinase assay; conditions: catalytic domain recombinant kinase, Tyr6 peptide
T1 construct: 5 μl of catalytic domain recombinant Kinase enzyme+Tyr peptide substrate (Invitrogen, CA); purchased Invitrogen
Procedure: (§1) JAK and SYK tyrosine phosphorylation activity is measured using the Z'-LYTE™ Technology developed by Invitrogen Corporation (Carlsbad, Calif.). For JAK1, JAK2 and JAK3 the Z'-LYTE™ Kinase Assay Kit-Tyr6 Peptide (part number PV4122) was used. The Z'-LYTE™ biochemical assay employs a fluorescence resonance energy transfer (FRET) coupled-enzyme format and is based on the differential sensitivity of phosphorylated and non-phosphorylated peptides to proteolitic cleavage. The assay uses a synthetic peptide substrate that is labelled with a donor fluorophore (coumarin) and an acceptor fluorophore (fluorescein) that make up a FRET pair. In the primary reaction (the Kinase Reaction), the kinase transfers the γ-phosphate of ATP to a single tyrosine residue on the substrate, while the presence of a kinase inhibitor in the primary reaction suppresses phosphorylation. In the secondary reaction (the Development Reaction), a site-specific protease (the Development Reagent) is added. The development buffer quenches the Kinase Reaction, while the protease recognizes and cleaves non-phosphorylated Z'-LYTE™ peptide substrate. Cleavage disrupts FRET between the donor and acceptor fluorophores on the non-phosphorylated substrate, while uncleaved, phosphorylated substrate maintains FRET.
(§2) To test the ability of candidate molecules to inhibit JAK tyrosine phosphorylation activity, molecules are reconstituted in 100% DMSO and serially diluted 1:10 in polypropylene v-bottom microtiter plates. The candidate molecules are then diluted 1:25 into kinase buffer and 2.5 μl transferred into duplicate wells of a 384 well low volume black microtiter assay plate (Corning, USA). The final DMSO concentration in the assay is 1%. The kinase reaction contains 2.5 μl of a candidate molecule, 5 μl of catalytic domain recombinant Kinase enzyme+Tyr peptide substrate (Invitrogen, CA) and 2.5 μl ATP (Invitrogen, CA). The kinase reaction is allowed to precede for 1 hour at room temperature. The protease reaction is initiated by the addition of 5 μl Development Reagent (Invitrogen, CA). After 1 hour incubation at room temperature the fluorescence is measured using a FlexStation plate reader (Molecular Devices, Sunnyvale, Calif.). The reader settings used are as follows: Fluorescence mode, endpoint, top read, excitation 400 nm, emission 445 nm and 520 nm. Auto Cutoff 435 nm and 515 nm, PMT sensitivity high, 6 reads per well. Inhibition of JAK activity is calculated as the percent phosphorylation of substrate in the presence of inhibitor compared to the percent phosphorylation of substrate in the absence of inhibitor. IC50's were derived using Xlfit 4.3 (IDBS, UK), 4 parameter logistic model 205: Y=(A+((B−A)/(1+((C/x)^D)))).

[2] = target: T2, JAK2 (Homo sapiens, UniProt O60674); assay: as above; conditions: catalytic domain recombinant kinase, Tyr6 peptide
T2 construct: 5 μl of catalytic domain recombinant Kinase enzyme+Tyr peptide substrate (Invitrogen, CA); purchased Invitrogen
T2 sequence (O60674 849-1124 limits assumed): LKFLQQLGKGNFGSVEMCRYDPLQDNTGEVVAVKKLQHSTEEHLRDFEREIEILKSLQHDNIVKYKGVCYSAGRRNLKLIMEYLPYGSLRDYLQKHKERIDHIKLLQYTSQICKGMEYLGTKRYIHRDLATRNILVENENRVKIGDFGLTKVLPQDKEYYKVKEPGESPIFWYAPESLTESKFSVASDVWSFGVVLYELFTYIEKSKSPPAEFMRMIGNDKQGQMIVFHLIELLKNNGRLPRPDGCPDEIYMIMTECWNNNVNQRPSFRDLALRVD
Procedure: as §1, §2

[3] = target: T3, JAK1 (Homo sapiens, UniProt P23458); assay: as above; conditions: catalytic domain recombinant kinase, Tyr6 peptide
T3 construct: 5 μl of catalytic domain recombinant Kinase enzyme+Tyr peptide substrate (Invitrogen, CA); purchased Invitrogen
T3 sequence (P23458 875-1153 limits assumed): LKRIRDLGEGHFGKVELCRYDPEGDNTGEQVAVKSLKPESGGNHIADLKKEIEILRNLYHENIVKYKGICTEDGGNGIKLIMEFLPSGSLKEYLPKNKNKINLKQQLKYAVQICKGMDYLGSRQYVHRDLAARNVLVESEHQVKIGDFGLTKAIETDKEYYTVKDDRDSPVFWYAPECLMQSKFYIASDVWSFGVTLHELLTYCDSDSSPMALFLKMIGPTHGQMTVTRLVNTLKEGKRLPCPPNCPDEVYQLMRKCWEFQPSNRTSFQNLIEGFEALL
Procedure: as §1, §2

[4] = target: T4, full length active recombinant SYK enzyme (Homo sapiens, UniProt P43405); assay: SYK tyrosine phosphorylation activity, LANCE TR-FRET kinase assay; conditions: 1 nM SYK, 100 μM ATP, 1 hour at room temperature
T4 construct: full length active recombinant SYK enzyme (Millipore, CA); purchased Millipore
Procedure: Potency of candidate molecules for inhibiting Syk tyrosine phosphorylation activity is assessed by measuring the ability of a test compound to inhibit Syk-mediated tyrosine phosphorylation of a Syk-specific substrate.
SYK tyrosine phosphorylation activity is measured using the LANCE™ Technology developed by Perkin Elmer Life and Analytical Sciences (Boston, Mass.). LANCE™ refers to homogeneous time resolved fluorometry applications using techniques such as time-resolved fluorescence resonance energy transfer assay (TR-FRET) (see generally for procedures in Perkin Elmer Application Note—How to Optimize a Tyrosine Kinase Assay Using Time Resolved Fluorescence-Based LANCE Detection, wwww.perkinelmer.com/lifesciences). The assay principle involves detection of a phosphorylated substrate using energy transfer from a phosphospecific europium-labeled antibody to streptavidin-allophycocyanin as an acceptor.
To test the ability of candidate molecules to inhibit SYK tyrosine phosphorylation activity, molecules are reconstituted in 30% DMSO and serially diluted 1:3 with the final dilution containing DMSO in the absence of the candidate molecule. The final DMSO concentration in the assay is 3%. Kinase assays are performed as a two part reaction. The first reaction is a kinase reaction that comprises a candidate molecule, full length active recombinant SYK enzyme (Millipore, CA) and biotin-labeled SYK-specific substrate biotin-[…]-OH. The second reaction involves termination of the kinase reaction and the simultaneous addition of the detection reagents-europium-labeled anti-phosphotyrosine reagent (Eu-W1024-PY100, Perkin Elmer, Boston, Mass.) and Streptavidin-Allophycocyanin detection reagent (SA-APC, Prozyme, CA). The kinase reaction is performed in a black U-bottom 96-well microtitre plate. The final reaction volume is 50 μL and contains a final concentration of 1 nM active SYK enzyme, 550 nM SYK-substrate, and 100 μM ATP diluted in a buffer containing 50 mM Tris pH 7.5, 5 mM MgCl2, and 1 mM DTT. The reaction is allowed to proceed for 1 hour at room temperature. The stop buffer contains 100 mM Tris pH 7.5, 300 mM NaCl2, 20 mM EDTA, 0.02% Brij35, and 0.5% BSA. The detection reagents are added to the reaction mixture at the following dilutions—1:500 for Eu-W1024-PY100 and 1:250 for SA-APC. The kinase reaction is terminated by the addition of 50 μL stop buffer containing the detection reagents. The detection is allowed to proceed for 1 hr at room temperature. Detection of the phosphorolated substrate in the absence and presence of inhibitors is measured in the TR-FRET instrument, Analyst HT (Molecular Probes, Sunnyvale, Calif.) and the condition for measurements are set up using CriterionHost Release 2.0 (Molecular Probes, Sunnyvale, Calif.). The settings used are a follows: excitation 360 nm, emission 665-7.5 nm, beam splitter 350 nm 50/50, flash 100 pulses, delay 60 us, integration 400 us, z-height 2 mm. Inhibition of SYK-tyrosine kinase activity is calculated as the maximum response observed in the presence of inhibitor, compared to that in the absence of inhibitor. IC50s are derived by non-linear regression analysis.

T1 sequence (P52333 822-1111 limits assumed): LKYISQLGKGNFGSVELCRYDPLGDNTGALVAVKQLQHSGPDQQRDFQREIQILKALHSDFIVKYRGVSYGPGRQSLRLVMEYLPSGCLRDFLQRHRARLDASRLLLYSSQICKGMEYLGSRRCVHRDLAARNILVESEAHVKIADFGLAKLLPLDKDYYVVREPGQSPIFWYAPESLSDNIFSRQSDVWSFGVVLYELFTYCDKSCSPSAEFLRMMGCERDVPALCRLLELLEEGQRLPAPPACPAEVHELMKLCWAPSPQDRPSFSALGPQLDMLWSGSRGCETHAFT

Row | Compound | JAK3 IC50 potency class [1] | JAK2 IC50 potency class [2] | JAK1 IC50 potency class [3] | IC50 [4] | IC50 ([3]; read-out: JAK1 IC50 % Inhibition)
1 | CS(=O)(=O)N1CCN(c2ccc(Nc3ncc(C(N)=O)c(NC4CC4)n3)cc2F)CC1 [Compound 41, 4-(cyclopropylamino)-2-((3-fluoro-4-(4-(methylsulfonyl)piperazin-1-yl)phenyl)amino)pyrimidine-5-carboxamide] | ++++ (0.01 uM<IC50<0.001 uM) | ++++ (0.01 uM<IC50<0.001 uM) | +++ (0.10 uM<IC50<0.01 uM) | +++ (0.10 uM<IC50<0.01 uM) | –
2 | CCS(=O)(=O)N1CCN(c2ccc(Nc3ncc(C(N)=O)c(NC4CC4)n3)cc2F)CC1 [Compound 42, 4-(cyclopropylamino)-2-((4-(4-(ethylsulfonyl)piperazin-1-yl)-3-fluorophenyl)amino)pyrimidine-5-carboxamide] | ++++ (0.01 uM<IC50<0.001 uM) | ++++ (0.01 uM<IC50<0.001 uM) | +++ (0.10 uM<IC50<0.01 uM) | +++ (0.10 uM<IC50<0.01 uM) | –
3 | CCS(=O)(=O)N1CCN(c2ccc(Nc3ncc(C(N)=O)c(NC4CC4)n3)cc2Cl)CC1 [Compound 43, 2-((3-chloro-4-(4-(ethylsulfonyl)piperazin-1-yl)phenyl)amino)-4-(cyclopropylamino)pyrimidine-5-carboxamide] | +++ (0.10 uM<IC50<0.01 uM) | +++ (0.10 uM<IC50<0.01 uM) | ++ (1.0 uM<IC50<0.10 uM) | +++ (0.10 uM<IC50<0.01 uM) | –
4 | CS(=O)(=O)N1CCN(c2ccc(Nc3ncc(C(N)=O)c(NC4CC4)n3)cc2C#N)CC1 [Compound 47, 2-((3-cyano-4-(4-(methylsulfonyl)piperazin-1-yl)phenyl)amino)-4-(cyclopropylamino)pyrimidine-5-carboxamide] | ++++ (0.01 uM<IC50<0.001 uM) | ++++ (0.01 uM<IC50<0.001 uM) | +++ (0.10 uM<IC50<0.01 uM) | ++ (1.0 uM<IC50<0.10 uM) | –
5 | CCS(=O)(=O)N1CCN(c2ccc(Nc3ncc(C(N)=O)c(NC4CC4)n3)cc2C#N)CC1 [Compound 48, 2-((3-cyano-4-(4-(ethylsulfonyl)piperazin-1-yl)phenyl)amino)-4-(cyclopropylamino)pyrimidine-5-carboxamide] | ++++ (0.01 uM<IC50<0.001 uM) | +++ (0.10 uM<IC50<0.01 uM) | ++ (1.0 uM<IC50<0.10 uM) | ++ (1.0 uM<IC50<0.10 uM) | –

Results, then the molecule that gave them:

Row | JAK3 IC50 potency class [1] | JAK2 IC50 potency class [2] | JAK1 IC50 potency class [3] | IC50 [4] | IC50 ([3]; read-out: JAK1 IC50 % Inhibition) | Compound
6 | +++ (0.10 uM<IC50<0.01 uM) | +++ (0.10 uM<IC50<0.01 uM) | ++ (1.0 uM<IC50<0.10 uM) | ++ (1.0 uM<IC50<0.10 uM) | – | CS(=O)(=O)N1CCN(c2c(F)cc(Nc3ncc(C(N)=O)c(NC4CC4)n3)cc2F)CC1 [Compound 49, 4-(cyclopropylamino)-2-((3,5-difluoro-4-(4-(methylsulfonyl)piperazin-1-yl)phenyl)amino)pyrimidine-5-carboxamide]
7 | ++ (1.0 uM<IC50<0.10 uM) | ++ (1.0 uM<IC50<0.10 uM) | – | ++ (1.0 uM<IC50<0.10 uM) | > 1000 nM | CCS(=O)(=O)N1CCN(c2c(F)cc(Nc3ncc(C(N)=O)c(NC4CC4)n3)cc2F)CC1 [Compound 50, 4-(cyclopropylamino)-2-((4-(4-(ethylsulfonyl)piperazin-1-yl)-3,5-difluorophenyl)amino)pyrimidine-5-carboxamide]
8 | ++++ (0.01 uM<IC50<0.001 uM) | ++++ (0.01 uM<IC50<0.001 uM) | +++ (0.10 uM<IC50<0.01 uM) | ++ (1.0 uM<IC50<0.10 uM) | – | COc1cc(Nc2ncc(C(N)=O)c(NC3CC3)n2)ccc1N1CCC(C(=O)N(C)C)CC1 [Compound 51, 4-(cyclopropylamino)-2-((4-(4-(dimethylcarbamoyl)piperidin-1-yl)-3-methoxyphenyl)amino)pyrimidine-5-carboxamide]
9 | ++++ (0.01 uM<IC50<0.001 uM) | ++++ (0.01 uM<IC50<0.001 uM) | +++ (0.10 uM<IC50<0.01 uM) | +++ (0.10 uM<IC50<0.01 uM) | – | CN(C)C(=O)C1CCN(c2ccc(Nc3ncc(C(N)=O)c(NC4CC4)n3)cc2F)CC1 [Compound 52, 4-(cyclopropylamino)-2-((4-(4-(dimethylcarbamoyl)piperidin-1-yl)-3-fluorophenyl)amino)pyrimidine-5-carboxamide]
10 | ++++ (0.01 uM<IC50<0.001 uM) | ++++ (0.01 uM<IC50<0.001 uM) | +++ (0.10 uM<IC50<0.01 uM) | +++ (0.10 uM<IC50<0.01 uM) | – | CN(C)C(=O)C1CCN(c2ccc(Nc3ncc(C(N)=O)c(NC4CC4)n3)cc2Cl)CC1 [Compound 53, 2-((3-chloro-4-(4-(dimethylcarbamoyl)piperidin-1-yl)phenyl)amino)-4-(cyclopropylamino)pyrimidine-5-carboxamide]
11 | ++++ (0.01 uM<IC50<0.001 uM) | ++++ (0.01 uM<IC50<0.001 uM) | +++ (0.10 uM<IC50<0.01 uM) | +++ (0.10 uM<IC50<0.01 uM) | – | NC(=O)c1cnc(Nc2ccc(N3CCOCC3)c(F)c2)nc1NC1CC1 [Compound 54, 4-(cyclopropylamino)-2-((3-fluoro-4-morpholinophenyl)amino)pyrimidine-5-carboxamide]
